Data on 28 compounds can be found in the supplement of paper PMC10627819.
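Note: first quartile when negative (synergy) and third quartile when positive (antagonism).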

The test deals with S. aureus DSM 20231. Kind of test: Bliss interaction score (quartile over a dose matrix) (fitness difference); higher = more antagonism (negative = synergy). A digest of the protocol:
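The Bliss score takes observed fitness and subtracts the expected fitness, calculated as a product of single-drug fitness values. Those single-drug values were inferred from the combination data. Fitness is OD595 at entry into stationary phase divided by the plate's robust no-drug mean, capped at 1, and the score is summarised by quartiles across technical, biological and donor/recipient replicates.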
`Cn1c(=O)c2c(ncn2C)n(C)c1=O` [Caffeine] + CCC[C@@H]1C[C@@H](C(=O)N[C@@H]([C@H]2O[C@H](SC)[C@H](O)[C@@H](O)[C@H]2O)[C@H](C)Cl)N(C)C1 [Clindamycin]: the Bliss interaction score was -0.251.

`Cc1cc(C(C)(C)C)c(O)c(C)c1CC1=NCCN1` [Oxymetazoline] + COc1cc(Cc2cnc(N)nc2N)cc(OC)c1OC [Trimethoprim]: the Bliss interaction score amounted to 0.209.

Regarding `CC(C)c1c(C(=O)Nc2ccccc2)c(-c2ccccc2)c(-c2ccc(F)cc2)n1CC[C@@H](O)C[C@@H](O)CC(=O)O` [Atorvastatin] + CC1(C)S[C@@H]2[C@H](NC(=O)Cc3ccccc3)C(=O)N2[C@H]1C(=O)O [PenicillinG], the Bliss interaction score was 0.402.

Take `Cn1c(=O)c2c(ncn2C)n(C)c1=O` [Caffeine] + O=C(N[C@H](CO)[C@H](O)c1ccc([N+](=O)[O-])cc1)C(Cl)Cl [Chloramphenicol]: the Bliss interaction score was -0.3.

For the compound `CC(C)c1c(C(=O)Nc2ccccc2)c(-c2ccccc2)c(-c2ccc(F)cc2)n1CC[C@@H](O)C[C@@H](O)CC(=O)O` [Atorvastatin] + COc1cc(Cc2cnc(N)nc2N)cc(OC)c1OC [Trimethoprim], the Bliss interaction score worked out at 0.453.

With `O=C(O)c1cc(-c2ccc(F)cc2F)ccc1O` [Diflunisal] + CN(C)C(=O)C(CCN1CCC(O)(c2ccc(Cl)cc2)CC1)(c1ccccc1)c1ccccc1 [Loperamide], the Bliss interaction score came to 0.356.

Consider `CC(C)c1c(C(=O)Nc2ccccc2)c(-c2ccccc2)c(-c2ccc(F)cc2)n1CC[C@@H](O)C[C@@H](O)CC(=O)O` [Atorvastatin] + CO[C@@]12[C@H](COC(N)=O)C3=C(C(=O)C(C)=C(N)C3=O)N1C[C@@H]1N[C@@H]12 [MitomycinC], for which the Bliss interaction score stood at 0.187.

Take `CN(C)[C@@H]1C(O)=C(C(N)=O)C(=O)[C@@]2(O)C(O)=C3C(=O)c4c(O)ccc(Cl)c4[C@@](C)(O)[C@H]3C[C@@H]12` [Clortetracycline] + CC(=O)S[C@@H]1CC2=CC(=O)CC[C@]2(C)[C@H]2CC[C@@]3(C)[C@@H](CC[C@@]34CCC(=O)O4)[C@H]12 [Spironolactone]: the Bliss interaction score is 0.196.

`Cn1c(=O)c2c(ncn2C)n(C)c1=O` [Caffeine] + CC[C@H]1OC(=O)[C@H](C)[C@@H](O[C@H]2C[C@@](C)(OC)[C@@H](O)[C@H](C)O2)[C@H](C)[C@@H](O[C@@H]2O[C@H](C)C[C@H](N(C)C)[C@H]2O)[C@](C)(OC)C[C@@H](C)C(=O)[C@H](C)[C@@H](O)[C@]1(C)O [Clarithromycin]: the Bliss interaction score was -0.357.

For the compound `CO/N=C(\C(=O)N[C@@H]1C(=O)N2C(C(=O)O)=C(COC(C)=O)CS[C@H]12)c1csc(N)n1` [Cefotaxime] + O=c1[nH]cc(F)c(=O)[nH]1 [Fluorouracil], the Bliss interaction score was -0.114.

Turning to `CC(=O)Oc1ccccc1C(=O)O` [Acetylsalicylicacid] + Cc1c(Cl)cccc1Nc1ccccc1C(=O)O [Tolfenamic], the Bliss interaction score is -0.263.

In the case of `COCCOC(=O)C1=C(C)NC(C)=C(C(=O)OC/C=C/c2ccccc2)C1c1cccc([N+](=O)[O-])c1` (stereo not drawn) [Cilnidipine] + CCC[C@@H]1C[C@@H](C(=O)N[C@@H]([C@H]2O[C@H](SC)[C@H](O)[C@@H](O)[C@H]2O)[C@H](C)Cl)N(C)C1 [Clindamycin], the Bliss interaction score is -0.221.

Turning to `CN(C)[C@@H]1C(O)=C(C(N)=O)C(=O)[C@@]2(O)C(O)=C3C(=O)c4c(O)ccc(Cl)c4[C@@](C)(O)[C@H]3C[C@@H]12` [Clortetracycline] + CCCc1nc2c(C)cc(-c3nc4ccccc4n3C)cc2n1Cc1ccc(-c2ccccc2C(=O)O)cc1 [Telmisartan], the Bliss interaction score is -0.261.

As to `CN(C)[C@@H]1C(O)=C(C(N)=O)C(=O)[C@@]2(O)C(O)=C3C(=O)c4c(O)ccc(Cl)c4[C@@](C)(O)[C@H]3C[C@@H]12` [Clortetracycline] + CC(=O)Oc1cccc2c1C(=O)c1c(OC(C)=O)cc(C(=O)O)cc1C2=O [Diacerein], the Bliss interaction score was -0.344.

On to `COCCOC(=O)C1=C(C)NC(C)=C(C(=O)OC/C=C/c2ccccc2)C1c1cccc([N+](=O)[O-])c1` (stereo not drawn) [Cilnidipine] + Clc1ccc(COC(Cn2ccnc2)c2ccc(Cl)cc2Cl)c(Cl)c1 [Miconazole], for which the Bliss interaction score was 0.105.

Consider `Cn1c(=O)c2c(ncn2C)n(C)c1=O` [Caffeine] + CCC[C@@H]1C[C@@H](C(=O)N[C@@H]([C@H]2O[C@H](SC)[C@H](O)[C@@H](O)[C@H]2O)[C@@H](C)O)N(C)C1 [Lincomycin], for which the Bliss interaction score was -0.292.

As for `C[C@H]1c2cccc(O)c2C(=O)C2=C(O)[C@]3(O)C(=O)C(C(N)=O)=C(O)[C@@H](N(C)C)[C@@H]3[C@@H](O)[C@@H]21` [Doxycycline] + CC(=O)S[C@@H]1CC2=CC(=O)CC[C@]2(C)[C@H]2CC[C@@]3(C)[C@@H](CC[C@@]34CCC(=O)O4)[C@H]12 [Spironolactone], the Bliss interaction score was 0.239.

On to `O=C(O)c1cn(C2CC2)c2cc(N3CCNCC3)c(F)cc2c1=O` [Ciprofloxacin] + Cc1c(Cl)cccc1Nc1ccccc1C(=O)O [Tolfenamic], for which the Bliss interaction score was -0.188.

In the case of `CN(C)[C@@H]1C(O)=C(C(N)=O)C(=O)[C@@]2(O)C(O)=C3C(=O)c4c(O)ccc(Cl)c4[C@@](C)(O)[C@H]3C[C@@H]12` [Clortetracycline] + O=C(O)c1cc(-c2ccc(F)cc2F)ccc1O [Diflunisal], the Bliss interaction score was 0.232.

Turning to `C[C@H]1c2cccc(O)c2C(=O)C2=C(O)[C@]3(O)C(=O)C(C(N)=O)=C(O)[C@@H](N(C)C)[C@@H]3[C@@H](O)[C@@H]21` [Doxycycline] + CCCSc1nc(N[C@@H]2C[C@H]2c2ccc(F)c(F)c2)c2nnn([C@@H]3C[C@H](OCCO)[C@@H](O)[C@H]3O)c2n1 [Ticagrelor], the Bliss interaction score was -0.272.

`CN(C)[C@@H]1C(O)=C(C(N)=O)C(=O)[C@@]2(O)C(O)=C3C(=O)c4c(O)ccc(Cl)c4[C@@](C)(O)[C@H]3C[C@@H]12` [Clortetracycline] + C[C@]12CC[C@@H]3c4ccc(O)cc4CC[C@H]3[C@@H]1CC[C@@H]2O [Estradiol]: the Bliss interaction score amounted to 0.237.

For the compound `CC(=O)Oc1ccccc1C(=O)O` [Acetylsalicylicacid] + CC[C@H](c1ccc(O)cc1)[C@@H](CC)c1ccc(O)cc1 [Hexestrol], the Bliss interaction score is -0.455.

On to `COCCOC(=O)C1=C(C)NC(C)=C(C(=O)OC/C=C/c2ccccc2)C1c1cccc([N+](=O)[O-])c1` (stereo not drawn) [Cilnidipine] + CC[C@H]1OC(=O)[C@H](C)[C@@H](O[C@H]2C[C@@](C)(OC)[C@@H](O)[C@H](C)O2)[C@H](C)[C@@H](O[C@@H]2O[C@H](C)C[C@H](N(C)C)[C@H]2O)[C@](C)(OC)C[C@@H](C)C(=O)[C@H](C)[C@@H](O)[C@]1(C)O [Clarithromycin], for which the Bliss interaction score was -0.196.

In the case of `CN(C)[C@@H]1C(O)=C(C(N)=O)C(=O)[C@@]2(O)C(O)=C3C(=O)c4c(O)ccc(Cl)c4[C@@](C)(O)[C@H]3C[C@@H]12` [Clortetracycline] + COc1ccc(CCN(C)CCCC(C#N)(c2ccc(OC)c(OC)c2)C(C)C)cc1OC [Verapamil], the Bliss interaction score is 0.243.

Turning to `COc1cccc2c1C(=O)c1c(O)c3c(c(O)c1C2=O)C[C@@](O)(C(=O)CO)C[C@@H]3O[C@H]1C[C@H](N)[C@H](O)[C@H](C)O1` [Doxorubicin] + CCCSc1nc(N[C@@H]2C[C@H]2c2ccc(F)c(F)c2)c2nnn([C@@H]3C[C@H](OCCO)[C@@H](O)[C@H]3O)c2n1 [Ticagrelor], the Bliss interaction score is -0.298.

For the compound `COCCOC(=O)C1=C(C)NC(C)=C(C(=O)OC/C=C/c2ccccc2)C1c1cccc([N+](=O)[O-])c1` (stereo not drawn) [Cilnidipine] + CO[C@@]12[C@H](COC(N)=O)C3=C(C(=O)C(C)=C(N)C3=O)N1C[C@@H]1N[C@@H]12 [MitomycinC], the Bliss interaction score is -0.236.

`CC(=O)Oc1ccccc1C(=O)O` [Acetylsalicylicacid] + CCCCc1nc(Cl)c(CO)n1Cc1ccc(-c2ccccc2-c2nnn[nH]2)cc1 [Losartan]: the Bliss interaction score was determined as 0.178.

For the compound `Cc1ncc([N+](=O)[O-])n1CCO` [Metronidazole] + CCCSc1nc(N[C@@H]2C[C@H]2c2ccc(F)c(F)c2)c2nnn([C@@H]3C[C@H](OCCO)[C@@H](O)[C@H]3O)c2n1 [Ticagrelor], the Bliss interaction score came out at 0.152.
